Assay results as given in patent US10570168B2, “2′ and/or 5′ amino-acid ester phosphoramidate 3′-deoxy adenosine derivatives as anti- cancer compounds” (NuCana plc, priority 2014, dated 2020).

Legend:
Format in all cases: cell-based
CCRFCEM = assay: Solid tumour and haematological malignancy assay (CellTiterGlo); settings: Homo sapiens, CCRF-CEM, 72 h; for IC50: read-out: IC50 (absolute IC50); for Emax: read-out: MI %
How it was run: (§1)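 72 hr compound treatment, duplicates, 0.5% DMSO final; readout CellTiterGlo.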

HEL92.1.7 = assay: as above; settings: Homo sapiens, HEL 92.1.7, 72 h; for IC50: read-out: IC50 (absolute IC50); for Emax: read-out: MI %
How it was run: as §1

HepG2 [1] = assay: as above; settings: Homo sapiens, HepG2, 72 h; for IC50: read-out: IC50 (absolute IC50); for Emax: read-out: MI %
How it was run: as §1

HL-60 = assay: CellTiterGlo viability assay, initial screening; settings: Homo sapiens, HL-60, 72 h, read-out: IC50 (relative IC50)
How it was run: (§2)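 CTG viability readout after ~72 hr compound exposure. 9 pts, 3.16-fold serial dilution in DMSO, final down to 19.9 nM; DMSO 0.5% final; duplicates; standard CO2 culture.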

MOLT-4 [2] = assay: CellTiterGlo viability assay, initial screening; settings: Homo sapiens, MOLT-4, 72 h, read-out: IC50 (relative IC50)
How it was run: as §2

HepG2 [3] = assay: CellTiterGlo viability assay, initial screening; settings: Homo sapiens, HepG2, 72 h, read-out: IC50 (relative IC50)
How it was run: as §2

K562 = assay: CellTiterGlo viability assay, initial screening; settings: Homo sapiens, K562, 72 h, read-out: IC50 (relative IC50)
How it was run: as §2

KG-1 = assay: CellTiterGlo viability assay, initial screening; settings: Homo sapiens, KG-1, 72 h, read-out: IC50 (relative IC50)
How it was run: as §2

MCF-7 = assay: CellTiterGlo viability assay, initial screening; settings: Homo sapiens, MCF7, 72 h, read-out: IC50 (relative IC50)
How it was run: as §2

HS445 = assay: Solid tumour and haematological malignancy assay (CellTiterGlo); settings: Hs 445, 72 h; for IC50: read-out: IC50 (absolute IC50); for Emax: read-out: MI %
How it was run: (§3)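 Cells were exposed to compound for 72 hr under standard growth conditions, and viability was then read by CellTiterGlo luminescence. Treatment used a 9-point, 3.16-fold titration in duplicate, with a lowest final concentration of 19.9 nM and 0.5% final DMSO.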

RL = assay: as above; settings: Homo sapiens, 72 h; for IC50: read-out: IC50 (absolute IC50); for Emax: read-out: MI %
How it was run: as §3

BxPC-3 = assay: as above; settings: Homo sapiens, BXPC-3, 72 h, read-out: IC50 (absolute IC50)
How it was run: as §3

MV4-11 = assay: as above; settings: Homo sapiens, MV4-11, 72 h; for IC50: read-out: IC50 (absolute IC50); for Emax: read-out: MI %
How it was run: as §3

RPMI-8226 = assay: as above; settings: Homo sapiens, RPMI-8226, 72 h; for IC50: read-out: IC50 (absolute IC50); for Emax: read-out: MI %
How it was run: as §3

Z138 = assay: as above; settings: Homo sapiens, Z-138, 72 h; for IC50: read-out: IC50 (absolute IC50); for Emax: read-out: MI %
How it was run: as §3

NCI-H929 = assay: as above; settings: Homo sapiens, NCI-H929, 72 h; for IC50: read-out: IC50 (absolute IC50); for Emax: read-out: MI %
How it was run: as §3

Jurkat = assay: as above; settings: Homo sapiens, 72 h, read-out: IC50 (absolute IC50)
How it was run: as §3

MOLT-4 [4] = assay: as above; settings: Homo sapiens, MOLT-4, 72 h; for IC50: read-out: IC50 (absolute IC50); for Emax: read-out: MI %
How it was run: as §3

SW620 = assay: as above; settings: Homo sapiens, SW-620, 72 h; for IC50: read-out: IC50 (absolute IC50); for Emax: read-out: MI %
How it was run: as §3

THP-1 = assay: as above; settings: Homo sapiens, THP-1, 72 h; for IC50: read-out: IC50 (absolute IC50); for Emax: read-out: MI %
How it was run: as §3

Row | SMILES | IC50 (CCRFCEM) | IC50 (HEL92.1.7) | IC50 (HepG2 [1]) | IC50 (HL-60) | IC50 (MOLT-4 [2]) | IC50 (HepG2 [3]) | IC50 (K562) | IC50 (KG-1) | IC50 (MCF-7) | IC50 (HS445) | IC50 (RL) | Emax (RL) | IC50 (BxPC-3) | IC50 (MV4-11) | Emax (MV4-11) | IC50 (RPMI-8226) | IC50 (Z138) | IC50 (NCI-H929) | Emax (NCI-H929) | IC50 (Jurkat) | other results
1 | CCOC(=O)CCc1ccccc1OP(=O)(N[C@@H](C)C(=O)OCc1ccccc1)OC[C@@H]1C[C@@H](O)[C@H](n2cnc3c(N)ncnc32)O1 (stereo partly drawn) [F, (2S)-benzyl 2-(((((2S,4R,5R)-5-(6-amino-9H-purin-9-yl)-4-hydroxytetrahydrofuran-2-yl)methoxy)(2-(3-ethoxy-3-oxopropyl)phenoxy)phosphoryl)amino)propanoate] | 0.1 to 5 µM | 5 to 15 µM | 15 to 100 µM | 15 to 100 µM | 0.1 to 5 µM | 15 to 100 µM | 15 to 100 µM | 15 to 100 µM | 5 to 15 µM | 15 to 100 µM | 5 to 15 µM | 90% | 15 to 100 µM | 0.1 to 5 µM | 100% | 15 to 100 µM | 15 to 100 µM | 5 to 15 µM | 100% | 0.1 to 5 µM | IC50 (MOLT-4 [4]): 0.1 to 5 µM; IC50 (SW620): 15 to 100 µM; Emax (SW620): 90%; IC50 (THP-1): 15 to 100 µM; Emax (THP-1): 100%
2 | C[C@H](NP(=O)(OC[C@@H]1CC(O)[C@H](n2cnc3c(N)ncnc32)O1)Oc1ccccc1)C(=O)OCc1ccccc1 (stereo partly drawn) [Compound A, 3′-deoxyadenosine-5′-O-[phenyl(benzyloxy-L-alaninyl)] phosphate] | 0.1 to 5 µM | 5 to 15 µM | 15 to 100 µM | 5 to 15 µM | 0.1 to 5 µM | 5 to 15 µM | 0.1 to 5 µM | 5 to 15 µM | 0.1 to 5 µM | 15 to 100 µM | 0.1 to 5 µM | 93% | 15 to 100 µM | 0.1 to 5 µM | 99% | 5 to 15 µM | 15 to 100 µM | 5 to 15 µM | 100% | 0.1 to 5 µM | Emax (CCRFCEM): 100%; Emax (HEL92.1.7): 100%; Emax (HepG2 [1]): 75%; Emax (HS445): 98%; Emax (RPMI-8226): 96%; Emax (Z138): 95%; IC50 (MOLT-4 [4]): 0.1 to 5 µM; Emax (MOLT-4 [4]): 98%; IC50 (SW620): 15 to 100 µM; Emax (SW620): 85%; IC50 (THP-1): 15 to 100 µM; Emax (THP-1): 74%
3 | Nc1ncnc2c1ncn2[C@@H]1O[C@H](COP(=O)(NCC(=O)OCc2ccccc2)Oc2ccccc2)C[C@H]1O (stereo partly drawn) [C, Benzyl 2-(((((2S,4R,5R)-5-(6-amino-9H-purin-9-yl)-4-hydroxytetrahydrofuran-2-yl)methoxy)(phenoxy)phosphoryl)amino)acetate] | 5 to 15 µM | 0.1 to 5 µM | 15 to 100 µM | 15 to 100 µM | 0.1 to 5 µM | 15 to 100 µM | 5 to 15 µM | > 100 µM | 5 to 15 µM | 15 to 100 µM | 5 to 15 µM | 100% | 15 to 100 µM | 5 to 15 µM | 106% | 15 to 100 µM | 5 to 15 µM | 5 to 15 µM | 104% | 5 to 15 µM | Emax (CCRFCEM): 100%; Emax (HEL92.1.7): 99%; Emax (HepG2 [1]): 99%; Emax (HS445): 102%; Emax (RPMI-8226): 103%; Emax (Z138): 100%; IC50 (MOLT-4 [4]): 0.1 to 5 µM; Emax (MOLT-4 [4]): 92%; IC50 (SW620): 15 to 100 µM; Emax (SW620): 100%; IC50 (THP-1): 15 to 100 µM; Emax (THP-1): 99%
